Consider 86 compounds from PubChem BioAssay AID1817 (Sanford-Burnham Center for Chemical Genomics, 2009).

Structures are written as SMILES. Active and inactive are the calls of the source.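 How the source made its calls: active means displacement of at least 50% at 20 µM, with a fluorescence ratio check between 0.3 and a set limit; inactive means the rest.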

In the assay the target is E3 ubiquitin-protein ligase SIAH1 (Homo sapiens) (UniProt Q8IUQ4). Nature of the assay: blockers of Siah-1 interaction with plectin peptide – biochemical, fluorescence polarization, rhodamine-plectin, uHTS, primary screen (AID 1817). Conditions: Siah-1 / rhodamine-plectin peptide fluorescence polarization. In general terms: Polarisation of emitted light reports the rotation of a fluorescent probe.
Chain of E3 ubiquitin-protein ligase SIAH1 (Homo sapiens) (Q8IUQ4 whole entry, looked up): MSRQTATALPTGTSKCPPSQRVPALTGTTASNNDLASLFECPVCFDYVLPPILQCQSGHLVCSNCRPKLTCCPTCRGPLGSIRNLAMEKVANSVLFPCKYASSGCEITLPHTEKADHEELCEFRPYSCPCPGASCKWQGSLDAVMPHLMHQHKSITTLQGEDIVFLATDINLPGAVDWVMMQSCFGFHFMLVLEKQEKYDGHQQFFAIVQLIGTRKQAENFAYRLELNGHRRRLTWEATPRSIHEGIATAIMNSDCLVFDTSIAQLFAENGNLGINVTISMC

On to `CCCCN(Cc1cc2cc(OC)ccc2[nH]c1=O)S(=O)(=O)c1ccc(C)cc1`, for which the IC50 was > 200 µM (inactive).

For the compound `COC(=O)c1cc(NC(=O)c2ccccc2)c(=O)oc1/C=C/Nc1ccc(Oc2ccccc2)cc1`, the IC50 was > 200 µM (inactive).

Turning to `O=C(CSc1ccc(Br)c2cccc(Cl)c12)Nc1ccc(S(=O)(=O)Nc2nccs2)cc1`, the IC50 is > 200 µM (inactive).

For `COCCCn1c(N)c(C(=O)NCc2ccco2)c2nc3ccccc3nc21`, the IC50 is > 200 µM (inactive).

In the case of `CS(=O)(=O)N1CCN(c2ccc([N+](=O)[O-])c(SCc3ccco3)c2)CC1`, the IC50 is > 200 µM (inactive).

For the compound `COC(=O)C1C=C2c3cccc4[nH]cc(c34)CC2N(C)C1` (stereo unspecified), the IC50 result is “inactive”.

In the case of `O=C(Cn1cnc2scc(-c3ccccc3)c2c1=O)NCc1ccco1`, the IC50 was > 200 µM (inactive).

In the case of `Cc1ccc(C(=O)NC2CC3CCCC(C2)N3C(=O)NC2CCCCC2)cc1` (stereo unspecified), the IC50 is > 200 µM (inactive).

As to `Cc1ccccc1NC(=O)CN1C(=O)N/C(=C\c2ccccc2OCc2ccc(C(=O)O)cc2)C1=O`, the IC50 is 11.5 µM.

For `O=C1C=C(NCc2ccccc2)c2ccccc2C1=O`, the IC50 was > 200 µM (inactive).

Take `COC/C=C/C1=CC2=CC(=O)C(C)(OC(=O)c3ccco3)C(=O)C2=CO1` (stereo unspecified): the IC50 entry is “inactive”.

For `N#C/C(=C\c1c(F)cccc1Cl)C(=O)NC1CC1`, the IC50 was > 200 µM (inactive).

As for `O=C(Nc1ccc(Br)cc1)c1ccc(N2C(=O)C3CC=CCC3C2=O)cc1` (stereo unspecified), the IC50 is 18.6 µM.

`Cc1coc2c(C)c3oc(=O)c(CCC(=O)N[C@@H](C)C(=O)N[C@@H](Cc4ccccc4)C(=O)O)c(C)c3cc12`: the IC50 was 16.8 µM.

For `COC(=O)C1CC(=O)N(c2ccc(OCc3ccccc3Cl)cc2)C1` (stereo unspecified), the IC50 was > 200 µM (inactive).

Consider `O=C(Nc1cc([N+](=O)[O-])ccc1N1CCOCC1)c1cccs1`, for which the IC50 is > 200 µM (inactive).

In the case of `Cc1ccccc1-c1nc2c3ccccc3nc(=S)n2[nH]1`, the IC50 is > 200 µM (inactive).

As for `CCCCn1c(NS(=O)(=O)c2ccc(C)cc2)c(S(=O)(=O)c2ccccc2)c2nc3ccccc3nc21`, the IC50 is > 200 µM (inactive).

Consider `Cc1cc(C)nc(N=Nc2c(O)n(Cc3ccc(Cl)cc3)c3ccccc23)n1`, for which the IC50 is > 200 µM (inactive).

Take `CCOC(=O)c1c(C)[nH]c2c1-c1ccccc1C(=O)C2=O`: the IC50 is > 200 µM (inactive).

`N#Cc1c(NC(=O)c2ccc(Br)o2)n(-c2ccccc2)c2nc3ccccc3nc12`: the IC50 is > 200 µM (inactive).

As for `Nc1c(C(=O)NCc2ccco2)c2nc3ccccc3nc2n1Cc1ccccc1`, the IC50 is > 200 µM (inactive).

Regarding `O=C(O)c1cc(O)c2c(c1)C(=O)c1cccc(O)c1C2=O`, the IC50 entry was “inactive”.

As for `CCCCNc1nnc(Cc2ccc(Cl)cc2)c(=O)[nH]1`, the IC50 is > 200 µM (inactive).

Turning to `C[N+]1(CCNC(=O)/C=N/O)CCCCC1`, the IC50 is > 200 µM (inactive).

Regarding `CC1CCN(S(=O)(=O)c2nnc(NC(=O)c3cccc(Cl)c3)s2)CC1`, the IC50 was > 200 µM (inactive).

As for `CCC(C)N1C(=O)/C(=C/c2c(NCCCOC(C)C)nc3c(C)cccn3c2=O)SC1=S` (stereo unspecified), the IC50 is > 200 µM (inactive).

For the compound `Cc1cc(C)n(-c2ccc(Cl)c(C(=O)Nc3cc(C(F)(F)F)ccc3Cl)n2)n1`, the IC50 was > 200 µM (inactive).

Regarding `Nc1c(C(=O)NCc2ccco2)c2nc3ccccc3nc2n1CCc1ccccc1`, the IC50 is > 200 µM (inactive).

Turning to `O=C(/C=C/c1ccco1)OCc1nnc(-c2ccccc2)o1`, the IC50 was > 200 µM (inactive).

`C=CCc1cccc2cc(C(=O)Nc3ccc(CC(=O)O)cc3)c(=O)oc12`: the IC50 is 17.3 µM.

As for `CC(NC(=O)Nc1ccc(O)cc1)(C(F)(F)F)C(F)(F)F`, the IC50 was > 200 µM (inactive).

As for `COc1cccc(CCC(=O)N(C)C2CCCN(Cc3ccccc3F)C2)c1` (stereo unspecified), the IC50 is > 200 µM (inactive).

Regarding `CN1C(=O)NC(c2ccccc2[N+](=O)[O-])C2=C1CCCC2=O` (stereo unspecified), the IC50 was 10.3 µM.

Turning to `COCCOC(=O)c1sc(=S)n(CCOC)c1N`, the IC50 is 8.07 µM.

`Cc1cc(C)n2ncc(C(=O)Nc3ccc4c(c3)OCO4)c2n1`: the IC50 is > 200 µM (inactive).

In the case of `C=C(C)Cn1c(N2CCN(CC)CC2)nc2c1c(=O)[nH]c(=O)n2C`, the IC50 was > 200 µM (inactive).

Consider `O=C(Nc1ccc(Cl)cc1)OCc1cn(-c2ccccc2)nn1`, for which the IC50 was > 200 µM (inactive).

For the compound `Nc1ccc(O)c2c1C(=O)c1ccccc1C2=O`, the IC50 is 1.52 µM.

Consider `Cc1cc(Cl)ccc1NC(=O)CN1CCC(C(O)(c2ccccc2)c2ccccc2)CC1`, for which the IC50 was > 200 µM (inactive).

Take `CCCCn1c(NC(=O)c2ccc(Br)o2)c(C(=O)OCC)c2nc3ccccc3nc21`: the IC50 is > 200 µM (inactive).

For `O=C(CCN1CCN(Cc2ccccc2)CC1)Nc1cccc(Cl)c1`, the IC50 was > 200 µM (inactive).

Consider `Oc1c(Br)cc(Br)cc1CNc1ccc(F)cc1`, for which the IC50 was > 200 µM (inactive).

`CCc1nnc(NS(=O)(=O)c2ccc(NC(=S)NC(=O)/C=C/c3ccc(C(C)C)cc3)cc2)s1`: the IC50 was 19.2 µM.

As to `CN(C)c1cccc2c(C=C(C#N)C#N)ccc(N(C)C)c12`, the IC50 is > 200 µM (inactive).

`COc1cc(CNc2ccc(O)cc2)cc(Br)c1OCc1ccccc1F`: the IC50 entry is “inactive”.

For the compound `O=C(Nc1ccc(S(=O)(=O)N2CCOCC2)cc1)c1ccc(=O)[nH]c1`, the IC50 is 20.5 µM.

As to `CCOC(=O)C1(C)C=C(Nc2ccc(O)cc2)C(=O)N1c1ccc(O)cc1` (stereo unspecified), the IC50 was > 200 µM (inactive).

With `O=C(O)CCCCN1C(=O)/C(=C\c2ccc(OCc3ccccc3)c(OCc3ccccc3)c2)SC1=S`, the IC50 was > 200 µM (inactive).

Turning to `COc1cc(/C=C(\C#N)c2nc3ccccc3[nH]2)ccc1OC(=O)c1ccco1`, the IC50 is > 200 µM (inactive).

As for `O=S(=O)(Nc1nc2ccccc2nc1Nc1ccc(N2CCOCC2)cc1)c1cc(Cl)ccc1Cl`, the IC50 is > 200 µM (inactive).

Take `Cc1c(Cc2ccccc2)c(=O)oc2c(C)c(OCC(=O)N[C@@H](Cc3ccccc3)C(=O)O)ccc12`: the IC50 result is “inactive”.

Take `O=C(CC1Nc2cccc3cccc(c23)NC1=O)Nc1ccccc1` (stereo unspecified): the IC50 was > 200 µM (inactive).

As to `CCCCn1c(NS(=O)(=O)c2ccccc2)c(C(=O)OCC)c2nc3ccccc3nc21`, the IC50 was > 200 µM (inactive).

With `CN(C)CCOC(=O)CCc1ccccc1`, the IC50 was > 200 µM (inactive).

As to `Cc1ccc(C(=O)COc2ccccc2C(=O)Nc2ccccc2)cc1`, the IC50 is > 200 µM (inactive).

For `CCCCn1c(NC(=O)c2ccco2)c(S(=O)(=O)c2ccc(C)cc2)c2nc3ccccc3nc21`, the IC50 was > 200 µM (inactive).

On to `O=C(Nc1nc(-c2cc3ccccc3oc2=O)cs1)c1ccco1`, for which the IC50 is > 200 µM (inactive).

Turning to `Nc1ccc(S(=O)(=O)Nc2ccc(S(N)(=O)=O)cc2)cc1`, the IC50 is > 200 µM (inactive).

As to `CC1=C(C#N)c2nc(N)c(C#N)c(C)c2/C1=C\c1ccc(-c2ccccc2C(=O)O)o1`, the IC50 was 20.6 µM.

With `Cc1ccc(NC(=O)CCC(=O)NNC(=O)c2ccccc2[N+](=O)[O-])c(C)c1`, the IC50 was > 200 µM (inactive).

Take `Cc1ccc(S(=O)(=O)N2CCC(=O)N(C(COCc3cccc(C)c3)Cc3ccccc3)CC2)cc1` (stereo unspecified): the IC50 was > 200 µM (inactive).

Turning to `CCNc1ccc(C(=O)O)cc1N`, the IC50 result was “inactive”.

On to `COc1ccc(CNC(=S)Nc2cc(OC)ccc2OC)cc1`, for which the IC50 is > 200 µM (inactive).

As to `COc1ccc(-c2cnnn2-c2ccc(N)cc2)cc1OC`, the IC50 was > 200 µM (inactive).

Regarding `Cc1ccc2c(c1)N(CC(=O)NCCc1ccc(Cl)cc1)C(=O)c1cccnc1O2`, the IC50 was > 200 µM (inactive).

For `Cc1ccc(OCCCN2CCOCC2)cc1`, the IC50 was > 200 µM (inactive).

Consider `O=C(Nc1cccc(Oc2ccc(C(=O)O)c(C(=O)O)c2)c1)c1ccc(-c2ccccc2)cc1`, for which the 50% inhibitory concentration (IC50) was 8.53 µM.

`C=CCn1c(NS(=O)(=O)c2ccccc2)c(S(=O)(=O)c2ccc(C)cc2)c2nc3ccccc3nc21`: the IC50 is > 200 µM (inactive).

As to `CC(C)(C)c1ccc(C(CC(=O)O)NC(=O)Cc2ccc(F)cc2)cc1` (stereo unspecified), the IC50 was 25.6 µM.

As to `CC1CCCCC1NC(=O)CCS(=O)(=O)c1ccc2c(c1)NC(=O)CO2` (stereo unspecified), the IC50 is > 200 µM (inactive).

`Cc1ccc(-n2cccn2)c([C@@H]2C[C@H]3CN(C)C(=O)[C@]34CCCN24)c1`: the IC50 is > 200 µM (inactive).

Consider `CC(C)(C)c1cc(-c2csc(Nc3ccccc3)[n+]2Cc2ccc(C(=O)O)cc2)cc(C(C)(C)C)c1O`, for which the IC50 is > 200 µM (inactive).

`O=c1[nH]c(-c2ccc(F)cc2)nc2c1sc(=S)n2-c1ccccc1`: the IC50 was 19.6 µM.

As for `COc1cccc2cc(C(=O)N3CCc4ccccc43)c(=O)oc12`, the IC50 is > 200 µM (inactive).

Consider `COc1cc(/C=C2/SC(=S)N(Cc3ccccc3)C2=O)cc(Cl)c1O`, for which the IC50 is > 200 µM (inactive).

In the case of `c1ccc(C(c2ccccc2)N2CCN(C(c3ccccn3)c3nnnn3C3CCCC3)CC2)cc1` (stereo unspecified), the IC50 is > 200 µM (inactive).

Turning to `CC1CCN(C(=O)C2CCC(C)(C(=O)O)C2(C)C)CC1` (stereo unspecified), the IC50 was > 200 µM (inactive).

Regarding `Cc1cc(C)c(C#N)c(Nc2ccccc2C)n1`, the IC50 was > 200 µM (inactive).

With `NS(=O)(=O)c1ccc(NC(=O)c2cccc(N3C(=O)c4ccccc4C3=O)c2)cc1`, the IC50 entry is “inactive”.

As for `CCC1=Nc2cc(C(=O)O)ccc2Sc2ccccc21`, the IC50 is > 200 µM (inactive).

As for `Cc1ccn2c(C(=O)CSc3ccc(Cl)cc3Cl)c(C)nc2c1`, the IC50 was > 200 µM (inactive).

As to `COC(=O)c1ccc2c(c1)C(C)(C)C(/C=C/c1ccccc1O)=[N+]2C`, the IC50 is > 200 µM (inactive).

Regarding `O=C(Nc1ccc(Oc2ccsc2C(=O)O)cc1)c1ccccc1F`, the IC50 was > 200 µM (inactive).

Turning to `COCCn1nnnc1C(c1cc2ccc(OC)cc2[nH]c1=O)N1CCc2ccccc2C1` (stereo unspecified), the IC50 was > 200 µM (inactive).

Regarding `Cc1c(C(=O)O)sc2nc(CSc3ncc(C(F)(F)F)cc3Cl)[nH]c(=O)c12`, the IC50 was > 200 µM (inactive).

For orientation: IC50 means the concentration that gives 50% inhibition.
